We go through 10 compounds from patent US5952335A, “Fused polycyclic heterocycle derivatives” (Eisai Co., Ltd., priority 1995, dated 1999).

Where a name gives a salt, the structure may show the parent alone. Read-outs that look alike come from different tables or passages of the source.

For data set [1] the following is noted: cited from earlier work.
In the next data set the test system is P388 cells. Put plainly: in vitro Antitumor Test on P388 Cells (Mouse Leukemic Cells), MTT, 3 days. The settings on record: 72 h, 3 days incubation. The data set is classed as cell-based. The method, then:
P388 cells suspended in RPMI1640 medium (manufactured by Sanko Junyaku) containing 10% of fetal calf serum, (100 U/ml) of penicillin, 100 μg/ml of streptomycin, 5×10^-5 M of mercaptoethanol and 1 mM of sodium pyruvate were pipetted into a 96-well U-bottomed microplate at a ratio of 1.25×10^3 cells (0.1 ml) per well and incubated in a incubator containing 5% of carbon dioxide at 37° C. for a day. A compound of the present invention was dissolved in dimethyl sulfoxide to give a concentration of 10^-2 M and then diluted with the 10% fetal calf serum-containing RPMI1640 culture medium to give a concentration of 10^-4 or 10^-5 M. By taking this concentration as the maximal level, threefold serial dilution was effected with the use of the 10% fetal calf serum-containing RPMI1640 culture medium. Then these dilutions were added to the P388 incubation plate as described above at a ratio of 0.1 ml per well followed by incubation in an incubator containing 5% of carbon dioxide at 37° C. for 3 days. After the completion of the incubation, 0.05 ml/well of a 3.3 mg/ml solution of MTT [3-(4,5-dimethylthiazol-2-yl)-2,5-diphenyltetrazolium bromide] was added thereto and the incubation was continued for additional 2 hours. The microplate was centrifuged and the supernatant was aspirated off from each well. Then the formazan thus formed was dissolved in 0.1 ml of dimethyl sulfoxide and the absorbance thereof at 540 nm measured with a microplate reader was taken as an indication of the viable cell count. In accordance with the following formula, the inhibitory ratio was calculated and the 50% inhibitory concentration (IC50) of the test compound was determined: [formula] wherein T means the absorbance of a well containing the test compound; and C means the absorbance of a well containing no test compound.

For data set [2], the system named is M5076 (Mouse Reticulum Cell Sarcoma). Put plainly: in vivo Antitumor Test on M5076 (Mouse Reticulum Cell Sarcoma) transplanted in BDF1 mice. Particulars: M5076, ip, 504 h, i.p.; for survival rate on day 21 at 25 mg/kg / inhibition in vivo at 25 mg/kg: 25 mg/kg/day, d9 after transplantation. How it is done: M5076 cells (1×10^6 /animal) were subcutaneously transplanted into the side part of each BDF1 mouse (aged 6 to 7 weeks, female). A compound of the present invention was dissolved in a 5% solution of glucose. From the next day of the transplantation, the solution of the compound was intraperitoneally administered to the animals once a day in accordance with each schedule. On the other hand, a 5% solution of glucose was administered to the control group. The control group had 10 animals, while each test group had 5 animals.
On the 21st day after the transplantation, tumors were taken out and weighed. The tumor multiplication inhibitory ratio of each test group to the control group was determined in accordance with the following formula: [formula] wherein T means the average tumor weight of the test group; and C means the average tumor weight of the control group.

Data set [3] has as its system MX-1 (Human Mammary Cancer). Put plainly: in vivo Antitumor Test on MX-1 (Human Mammary Cancer) transplanted in nude mice. Particulars: Mus musculus, ip, 528 h, i.p.; for responders at 25 mg/kg / inhibition in vivo at 25 mg/kg: 25 mg/kg/day. The method, then: MX-1 tumor pieces (about 1 mm^3) were subcutaneously transplanted into the side part of each nude mouse (BALB/C.nu/nu, 6 to 7 weeks, female). A compound of the present invention was dissolved in a 5% solution of glucose. When the tumor volume reached 50 mm^3 (on the about 10th day after the transplantation), the solution of the compound was intraperitoneally administered to the animals once a day in accordance with each schedule. On the other hand, a 5% solution of glucose was administered to the control group. The control group had 10 animals, while each test group had 5 animals. On the 22nd day after the transplantation, tumors were taken out and weighed. The tumor multiplication inhibitory ratio of each test group to the control group was determined in accordance with the following formula: [formula] wherein T means the average tumor weight of the test group; and C means the average tumor weight of the control group.

For data set [4] the following is noted: Drugs Fut., 17, 832 (1992), cited from earlier work.
The mark [5] stands for this setting: Farmaco, 47, 1035 (1992), J. Med. Chem., 37, 593 (1994).
The mark [6] stands for this setting: read-out: Survival rate on the judgement day (21th day).
The mark [7] stands for this setting: tumor weight day 21, read-out: Proliferation inhibitory ratio (%).
[8] abbreviates: q7d × 3, read-out: Survival rate on the judgement day (22th day).
Where [9] appears, read: q7d × 3, tumor weight day 22, read-out: Proliferation inhibitory ratio (%).

With “2,3-dihydro-2-[2-(dimethylamino)ethyl]-1H,7H-naphthylidino[3,2,1-ij]quinazoline-1,3,7(2H)-trione”, the “antitumor activity in preclinical tests” value in data set [1] (setting [5]) is recorded as “only a weak antitumor activity in preclinical tests”.

As for `CN(C)CCn1c(=O)c2cccc3c(=O)c4ccccc4n(c1=O)c32` [2-[2-(dimethylamino)ethyl]pyrimid[5,6,1-de]acridine-1,3,7-trione], in data set [1] (setting [5]), the “antitumor activity in preclinical tests” value is given as “only a weak antitumor activity in preclinical tests”.

For orientation: IC50 means the concentration at which inhibition is half-maximal. In the data set on P388 cells, `CN(C)CCn1c(=O)c2cccc3c4c5ccccc5ccc4n(c1=O)c23` [Example 1, 5-[2-(Dimethylamino)ethyl]-4H-benzo[c]pyrimido[5,6,1-jk]carbazole-4,6(5H)-dione hydrochloride] gave an IC50 of 290 nM. In data set [2] (50 mg/kg/day, d1,2,3,4 after transplantation, read-out: Survival rate on the judgement day (21th day)), the survival rate on day 21 at 50 mg/kg worked out at 100%. For the same compound, the inhibition in vivo at 50 mg/kg in data set [2] (50 mg/kg/day, d1,2,3,4 after transplantation, tumor weight day 21, read-out: Proliferation inhibitory ratio (%)) amounted to 95.2%. Further, in data set [3] (q4d × 4, read-out: Survival rate on the judgement day (22th day)), the responders at 25 mg/kg was 100%. In data set [3] (q4d × 4, tumor weight day 22, read-out: Proliferation inhibitory ratio (%)), the inhibition in vivo at 25 mg/kg was 48%.

`CC(=O)c1ccc2c(ccc3c2c2cccc4c(=O)n(CCN(C)C)c(=O)n3c42)c1` [Example 2, 11-Acetyl-5-[2-(dimethylamino)ethyl]-4H-benzo[c]pyrimido[5,6,1-jk]carbazole-4,6(5H)-dione hydrochloride] displayed an IC50 in the data set with P388 cells of 70 nM. Besides, in data set [2] (setting [6]), the survival rate on day 21 at 25 mg/kg is 100%. Besides, the inhibition in vivo at 25 mg/kg in data set [2] (setting [7]) is 91.4%; in data set [3] (setting [9]), 63.3%. Moreover, the responders at 25 mg/kg in data set [3] (setting [8]) amounted to 100%.

As to `CC(O)c1ccc2c(ccc3c2c2cccc4c(=O)n(CCN(C)C)c(=O)n3c42)c1` (centres unmarked) [Example 3, 5-[2-(Dimethylamino)ethyl]-11-(1-hydroxyethyl)-4H-benzo[c]pyrimido[5,6,1-jk]carbazole-4,6(5H)-dione hydrochloride], in the data set with P388 cells, the IC50 amounted to 26 nM. Moreover, the survival rate on day 21 at 25 mg/kg in data set [2] (setting [6]) stood at 100%. Also, in data set [2] (setting [7]), the inhibition in vivo at 25 mg/kg stood at 90%. The responders at 20 mg/kg in data set [3] (20 mg/kg/day, q7d × 3, read-out: Survival rate on the judgement day (22th day)) came to 100%. In data set [3] (20 mg/kg/day, q7d × 3, tumor weight day 22, read-out: Proliferation inhibitory ratio (%)), the inhibition in vivo at 20 mg/kg was found to be 55.7%.

For the compound `CN(C)CCn1c(=O)c2cccc3c4c5c(ccc4n(c1=O)c23)C(=O)CCC5` [Example 4, 12,13-Dihydro-5-[2-(dimethylamino)ethyl]-4H-benzo[c]pyrimido[5,6,1-jk]carbazole-4,6,10(5H,11H)-trione hydrochloride], the midpoint of inhibition with P388 cells, the IC50, lay at 30 nM. In data set [2] (12.5 mg/kg/day, d1,8,15 after transplantation, read-out: Survival rate on the judgement day (21th day)), the survival rate on day 21 at 12.5 mg/kg was 100%. Further, in data set [2] (12.5 mg/kg/day, d1,8,15 after transplantation, tumor weight day 21, read-out: Proliferation inhibitory ratio (%)), the inhibition in vivo at 12.5 mg/kg was determined as 100%. In addition, the survival rate on day 21 at 25 mg/kg in data set [2] (setting [6]) stood at 100%. In addition, the inhibition in vivo at 25 mg/kg in data set [2] (setting [7]) came out at 89.2%. Besides, the responders at 15 mg/kg in data set [3] (15 mg/kg/day, q7d × 3, read-out: Survival rate on the judgement day (22th day)) was determined as 100%. Also, in data set [3] (15 mg/kg/day, q7d × 3, tumor weight day 22, read-out: Proliferation inhibitory ratio (%)), the inhibition in vivo at 15 mg/kg came out at 98.4%.

For `CN(C)CCn1c(=O)c2cccc3c4c5c(ccc4n(c1=O)c23)C(=O)CO5` [Example 8, 8-[2-(Dimethylamino)ethyl]-7H-furo[3,2-c]pyrimido[5,6,1-jk]carbazole-3,7,9(2H,8H)-trione hydrochloride], the midpoint of inhibition in the data set on P388 cells, the IC50, lay at 340 nM. Besides, the survival rate on day 21 at 30 mg/kg in data set [2] (30 mg/kg/day, d1,8,15 after transplantation, read-out: Survival rate on the judgement day (21th day)) was determined as 100%. Besides, the inhibition in vivo at 30 mg/kg in data set [2] (30 mg/kg/day, d1,8,15 after transplantation, tumor weight day 21, read-out: Proliferation inhibitory ratio (%)) worked out at 99.9%. Moreover, the responders at 25 mg/kg in data set [3] (setting [8]) was 100%. The inhibition in vivo at 25 mg/kg in data set [3] (setting [9]) turned out to be 94%.

Regarding `O=C1CCCc2c1ccc1c2c2cccc3c(=O)n(CCN4CCCC4)c(=O)n1c32` [Example 11, 12,13-Dihydro-5-[2-(1-pyrrolidinyl)ethyl]-4H-benzo [c]pyrimido[5,6,1-jk]carbazole-4,6,10(5H,11H)-trione hydrochloride], 42 nM corresponded to half-maximal inhibition in the data set with P388 cells (IC50). In data set [3] (30 mg/kg/day, q7d × 3, read-out: Survival rate on the judgement day (22th day)), the responders at 30 mg/kg came out at 100%. For the same compound, the inhibition in vivo at 30 mg/kg in data set [3] (30 mg/kg/day, q7d × 3, tumor weight day 22, read-out: Proliferation inhibitory ratio (%)) is 82.5%.

Regarding `CN(C)CCN1C(=O)c2cccc3cc(N)cc(c23)C1=O` [amonafide, 5-amino-2-[2-(dimethylamino)ethyl]-1H-benz[de]isoquinoline-1,3(2H)-dione], the “efficacy in clinical tests” value in data set [4] is given as “poor efficacy in clinical tests”. Further, the bone marrow toxicity entry in data set [4] (clinical tests) is “strong bone marrow toxicity”.

In the case of `CN(C)CCN1C(=O)c2cccc3cc4ccccc4c(c23)C1=O` [azonafide, 2-[2'-(dimethylamino)ethyl]-1,2-dihydro-3H-dibenz(deh)-isoquinoline-1,3-dione], the “antitumor activity in preclinical tests” value in data set [1] (compared with amonafide, WO9200281) is recorded as “enhance the antitumor activity in preclinical tests”.
